Assay results taken from ChEMBL document CHEMBL5291721, “A preclinical secondary pharmacology resource illuminates target-adverse drug reaction associations of marketed drugs” (Nat Commun, 2023).

Legend:
[1] = target: Voltage-dependent L-type calcium channel subunit alpha-1C (Rattus norvegicus, UniProt P22002); type: functional
[2] = target: Kappa-type opioid receptor (Homo sapiens, UniProt P41145)
[3] = target: Gamma-aminobutyric acid receptor subunit alpha-1 (Rattus norvegicus, UniProt P62813)
[4] = target: T1, Gastrin/cholecystokinin type B receptor (Homo sapiens, UniProt P32239)
T1 sequence (P32239 whole entry): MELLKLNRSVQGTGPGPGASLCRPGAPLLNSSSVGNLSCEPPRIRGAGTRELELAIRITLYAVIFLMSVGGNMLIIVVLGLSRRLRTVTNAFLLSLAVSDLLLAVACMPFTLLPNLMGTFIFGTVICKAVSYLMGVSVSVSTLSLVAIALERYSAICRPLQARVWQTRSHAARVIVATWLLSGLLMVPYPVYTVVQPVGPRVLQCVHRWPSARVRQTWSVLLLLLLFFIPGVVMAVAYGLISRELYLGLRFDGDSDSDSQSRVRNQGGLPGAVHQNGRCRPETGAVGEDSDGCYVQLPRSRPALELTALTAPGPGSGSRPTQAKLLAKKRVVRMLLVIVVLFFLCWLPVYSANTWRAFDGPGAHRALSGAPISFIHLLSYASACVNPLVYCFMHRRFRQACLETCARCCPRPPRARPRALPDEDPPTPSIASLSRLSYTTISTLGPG

[5] = target: Cannabinoid receptor 1 (Homo sapiens, UniProt P21554)
[6] = target: T2, 5-hydroxytryptamine receptor 2B (Homo sapiens, UniProt P41595); type: functional, cell-based
[7] = target: T3, Endothelin-1 receptor (Homo sapiens, UniProt P25101)
T3 sequence (P25101 whole entry): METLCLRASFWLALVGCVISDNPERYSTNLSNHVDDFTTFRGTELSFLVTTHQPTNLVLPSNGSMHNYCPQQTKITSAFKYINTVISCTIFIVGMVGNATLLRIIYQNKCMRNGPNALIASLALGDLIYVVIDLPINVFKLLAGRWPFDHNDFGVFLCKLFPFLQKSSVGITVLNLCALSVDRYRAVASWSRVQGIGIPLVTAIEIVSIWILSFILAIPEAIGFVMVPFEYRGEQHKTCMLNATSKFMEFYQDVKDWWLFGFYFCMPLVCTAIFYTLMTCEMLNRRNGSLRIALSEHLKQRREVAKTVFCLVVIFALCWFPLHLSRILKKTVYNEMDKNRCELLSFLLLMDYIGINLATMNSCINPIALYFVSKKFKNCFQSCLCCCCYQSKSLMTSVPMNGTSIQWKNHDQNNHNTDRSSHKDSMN

[8] = target: Prothrombin (Homo sapiens, UniProt P00734); type: functional
[9] = target: Acetylcholinesterase (Homo sapiens, UniProt P22303); type: functional
[10] = target: Mu-type opioid receptor (Homo sapiens, UniProt P35372)
[11] = target: T4, Alpha-1A adrenergic receptor (Homo sapiens, UniProt P35348); type: functional, cell-based
T4 sequence (P35348 whole entry): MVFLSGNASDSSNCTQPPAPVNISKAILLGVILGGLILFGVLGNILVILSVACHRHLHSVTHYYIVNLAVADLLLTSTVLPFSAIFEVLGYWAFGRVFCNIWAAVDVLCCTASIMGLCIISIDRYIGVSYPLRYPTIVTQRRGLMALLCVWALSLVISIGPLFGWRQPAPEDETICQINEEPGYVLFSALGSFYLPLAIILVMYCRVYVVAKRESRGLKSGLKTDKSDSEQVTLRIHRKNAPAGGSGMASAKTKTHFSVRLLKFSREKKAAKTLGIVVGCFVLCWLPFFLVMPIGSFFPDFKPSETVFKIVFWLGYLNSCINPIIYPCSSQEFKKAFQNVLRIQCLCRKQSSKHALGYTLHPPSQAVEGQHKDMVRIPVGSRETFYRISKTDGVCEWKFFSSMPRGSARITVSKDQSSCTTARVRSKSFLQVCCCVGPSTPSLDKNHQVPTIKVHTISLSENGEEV

[12] = target: T4, Alpha-1A adrenergic receptor; type: functional, cell-based; remark: listed apart in the source
[13] = target: T5, Thromboxane A2 receptor (Homo sapiens, UniProt P21731); type: functional, cell-based
T5 sequence (P21731 whole entry): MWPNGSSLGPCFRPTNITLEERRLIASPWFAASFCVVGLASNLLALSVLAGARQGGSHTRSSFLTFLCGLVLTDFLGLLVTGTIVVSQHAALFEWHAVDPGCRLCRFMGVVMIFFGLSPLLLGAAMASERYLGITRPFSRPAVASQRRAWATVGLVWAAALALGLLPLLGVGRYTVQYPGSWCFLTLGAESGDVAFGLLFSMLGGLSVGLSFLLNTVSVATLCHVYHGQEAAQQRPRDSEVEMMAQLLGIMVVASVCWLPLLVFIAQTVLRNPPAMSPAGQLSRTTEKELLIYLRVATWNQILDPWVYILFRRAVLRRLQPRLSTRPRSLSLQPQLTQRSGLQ

[14] = target: T2, 5-hydroxytryptamine receptor 2B; type: functional, cell-based; remark: listed apart in the source
Further: assay procedure not described here.

T2 sequence (P41595 whole entry): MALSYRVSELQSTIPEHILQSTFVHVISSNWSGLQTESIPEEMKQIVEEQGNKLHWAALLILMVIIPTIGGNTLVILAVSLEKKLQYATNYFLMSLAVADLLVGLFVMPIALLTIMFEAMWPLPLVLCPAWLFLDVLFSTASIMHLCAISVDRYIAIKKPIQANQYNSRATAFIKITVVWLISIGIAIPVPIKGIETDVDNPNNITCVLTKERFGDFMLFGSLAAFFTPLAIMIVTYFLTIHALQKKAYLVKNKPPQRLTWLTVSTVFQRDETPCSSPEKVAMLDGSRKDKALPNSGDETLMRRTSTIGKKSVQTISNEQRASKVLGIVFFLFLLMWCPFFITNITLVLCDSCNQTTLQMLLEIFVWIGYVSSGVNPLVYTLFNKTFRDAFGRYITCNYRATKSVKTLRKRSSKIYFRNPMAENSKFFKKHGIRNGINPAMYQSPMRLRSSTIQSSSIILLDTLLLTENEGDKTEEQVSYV
Chain of Gamma-aminobutyric acid receptor subunit alpha-1 (P62813 whole entry): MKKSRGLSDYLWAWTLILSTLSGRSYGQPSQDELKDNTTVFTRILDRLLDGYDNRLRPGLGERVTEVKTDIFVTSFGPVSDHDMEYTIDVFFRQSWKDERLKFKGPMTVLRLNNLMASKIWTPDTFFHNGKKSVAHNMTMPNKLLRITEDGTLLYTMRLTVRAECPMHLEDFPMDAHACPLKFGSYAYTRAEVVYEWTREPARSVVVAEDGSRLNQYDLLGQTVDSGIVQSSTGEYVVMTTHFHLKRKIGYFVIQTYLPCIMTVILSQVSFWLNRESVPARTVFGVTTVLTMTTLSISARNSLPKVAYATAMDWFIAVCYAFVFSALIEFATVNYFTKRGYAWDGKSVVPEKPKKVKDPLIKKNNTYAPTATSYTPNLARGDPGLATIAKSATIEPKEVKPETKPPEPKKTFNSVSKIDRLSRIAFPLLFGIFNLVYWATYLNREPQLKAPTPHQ
Chain of Voltage-dependent L-type calcium channel subunit alpha-1C (P22002 whole entry): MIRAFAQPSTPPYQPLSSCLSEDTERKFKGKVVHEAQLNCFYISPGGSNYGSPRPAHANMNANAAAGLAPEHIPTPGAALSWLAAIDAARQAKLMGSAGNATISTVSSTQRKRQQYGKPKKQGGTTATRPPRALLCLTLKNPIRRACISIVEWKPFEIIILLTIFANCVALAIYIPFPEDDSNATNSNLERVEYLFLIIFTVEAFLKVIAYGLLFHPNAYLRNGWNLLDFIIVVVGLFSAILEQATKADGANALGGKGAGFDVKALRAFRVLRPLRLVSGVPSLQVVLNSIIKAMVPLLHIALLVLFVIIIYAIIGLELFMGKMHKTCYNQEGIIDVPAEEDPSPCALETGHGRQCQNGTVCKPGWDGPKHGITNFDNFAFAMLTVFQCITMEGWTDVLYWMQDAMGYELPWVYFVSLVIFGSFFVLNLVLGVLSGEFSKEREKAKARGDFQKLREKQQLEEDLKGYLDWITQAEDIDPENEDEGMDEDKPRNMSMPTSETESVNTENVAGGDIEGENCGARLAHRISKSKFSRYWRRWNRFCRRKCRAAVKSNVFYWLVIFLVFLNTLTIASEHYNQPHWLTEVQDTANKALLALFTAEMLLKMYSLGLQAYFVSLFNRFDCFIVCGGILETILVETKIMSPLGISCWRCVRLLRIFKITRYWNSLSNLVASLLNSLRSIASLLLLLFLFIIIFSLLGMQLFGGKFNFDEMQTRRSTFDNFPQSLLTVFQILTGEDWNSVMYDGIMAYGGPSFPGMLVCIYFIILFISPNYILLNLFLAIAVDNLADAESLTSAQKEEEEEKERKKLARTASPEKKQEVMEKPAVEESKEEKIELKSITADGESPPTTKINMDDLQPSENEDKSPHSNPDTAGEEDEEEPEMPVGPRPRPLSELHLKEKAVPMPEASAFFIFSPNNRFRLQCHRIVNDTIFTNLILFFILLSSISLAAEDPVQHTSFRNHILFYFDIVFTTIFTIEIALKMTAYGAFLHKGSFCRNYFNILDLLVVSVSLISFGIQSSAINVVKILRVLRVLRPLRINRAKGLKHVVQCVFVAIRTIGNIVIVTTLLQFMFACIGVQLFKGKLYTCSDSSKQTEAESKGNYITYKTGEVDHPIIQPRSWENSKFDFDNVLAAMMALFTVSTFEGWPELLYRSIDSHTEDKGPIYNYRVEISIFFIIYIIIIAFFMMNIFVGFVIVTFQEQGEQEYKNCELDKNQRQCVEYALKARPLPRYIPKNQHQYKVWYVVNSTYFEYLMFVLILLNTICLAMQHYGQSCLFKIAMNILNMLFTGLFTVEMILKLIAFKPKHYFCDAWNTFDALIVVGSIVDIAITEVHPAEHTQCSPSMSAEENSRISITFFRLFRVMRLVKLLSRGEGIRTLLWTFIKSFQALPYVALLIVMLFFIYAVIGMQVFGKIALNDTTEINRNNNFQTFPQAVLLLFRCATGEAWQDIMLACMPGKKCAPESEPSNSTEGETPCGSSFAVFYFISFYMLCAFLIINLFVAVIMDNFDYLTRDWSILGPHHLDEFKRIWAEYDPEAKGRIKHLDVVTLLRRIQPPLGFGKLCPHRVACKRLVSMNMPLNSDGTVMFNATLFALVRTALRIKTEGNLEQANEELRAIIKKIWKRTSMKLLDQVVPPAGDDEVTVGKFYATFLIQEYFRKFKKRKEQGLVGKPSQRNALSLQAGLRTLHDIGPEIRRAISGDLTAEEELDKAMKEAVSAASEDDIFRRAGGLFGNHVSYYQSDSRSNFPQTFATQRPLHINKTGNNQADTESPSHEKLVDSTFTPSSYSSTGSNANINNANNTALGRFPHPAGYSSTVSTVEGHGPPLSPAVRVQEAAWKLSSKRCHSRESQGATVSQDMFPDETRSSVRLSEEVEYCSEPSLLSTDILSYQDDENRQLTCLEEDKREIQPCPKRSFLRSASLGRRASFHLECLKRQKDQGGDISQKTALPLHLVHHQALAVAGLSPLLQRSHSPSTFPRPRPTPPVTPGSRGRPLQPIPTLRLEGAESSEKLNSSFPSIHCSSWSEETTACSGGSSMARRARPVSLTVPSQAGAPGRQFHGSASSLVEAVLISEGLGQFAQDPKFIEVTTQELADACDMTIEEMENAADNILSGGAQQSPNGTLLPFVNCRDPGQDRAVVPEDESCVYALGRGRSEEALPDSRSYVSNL
Chain of Cannabinoid receptor 1 (P21554 whole entry): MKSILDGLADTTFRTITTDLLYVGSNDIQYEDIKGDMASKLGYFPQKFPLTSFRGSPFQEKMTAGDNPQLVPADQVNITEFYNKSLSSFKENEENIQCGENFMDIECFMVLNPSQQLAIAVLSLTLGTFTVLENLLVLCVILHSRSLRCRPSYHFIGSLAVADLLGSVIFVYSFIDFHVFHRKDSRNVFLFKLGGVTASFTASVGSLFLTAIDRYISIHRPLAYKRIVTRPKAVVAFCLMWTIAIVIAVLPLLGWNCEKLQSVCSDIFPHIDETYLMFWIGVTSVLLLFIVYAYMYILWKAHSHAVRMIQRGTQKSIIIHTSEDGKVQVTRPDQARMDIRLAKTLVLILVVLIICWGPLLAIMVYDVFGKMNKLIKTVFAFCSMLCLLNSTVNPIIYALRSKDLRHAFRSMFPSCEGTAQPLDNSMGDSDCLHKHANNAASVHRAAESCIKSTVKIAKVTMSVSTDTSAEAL
Chain of Kappa-type opioid receptor (P41145 whole entry): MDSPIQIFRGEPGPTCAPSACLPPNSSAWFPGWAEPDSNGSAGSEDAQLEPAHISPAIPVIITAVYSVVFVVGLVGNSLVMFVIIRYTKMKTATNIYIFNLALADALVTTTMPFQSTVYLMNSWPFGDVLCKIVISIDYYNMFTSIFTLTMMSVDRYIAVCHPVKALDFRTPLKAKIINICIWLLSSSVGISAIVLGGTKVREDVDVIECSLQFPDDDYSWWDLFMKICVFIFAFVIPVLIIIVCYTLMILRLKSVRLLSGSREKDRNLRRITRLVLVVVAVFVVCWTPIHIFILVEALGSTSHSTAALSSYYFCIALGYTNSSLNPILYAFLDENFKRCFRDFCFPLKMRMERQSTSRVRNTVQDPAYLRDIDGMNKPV
Chain of Acetylcholinesterase (P22303 whole entry): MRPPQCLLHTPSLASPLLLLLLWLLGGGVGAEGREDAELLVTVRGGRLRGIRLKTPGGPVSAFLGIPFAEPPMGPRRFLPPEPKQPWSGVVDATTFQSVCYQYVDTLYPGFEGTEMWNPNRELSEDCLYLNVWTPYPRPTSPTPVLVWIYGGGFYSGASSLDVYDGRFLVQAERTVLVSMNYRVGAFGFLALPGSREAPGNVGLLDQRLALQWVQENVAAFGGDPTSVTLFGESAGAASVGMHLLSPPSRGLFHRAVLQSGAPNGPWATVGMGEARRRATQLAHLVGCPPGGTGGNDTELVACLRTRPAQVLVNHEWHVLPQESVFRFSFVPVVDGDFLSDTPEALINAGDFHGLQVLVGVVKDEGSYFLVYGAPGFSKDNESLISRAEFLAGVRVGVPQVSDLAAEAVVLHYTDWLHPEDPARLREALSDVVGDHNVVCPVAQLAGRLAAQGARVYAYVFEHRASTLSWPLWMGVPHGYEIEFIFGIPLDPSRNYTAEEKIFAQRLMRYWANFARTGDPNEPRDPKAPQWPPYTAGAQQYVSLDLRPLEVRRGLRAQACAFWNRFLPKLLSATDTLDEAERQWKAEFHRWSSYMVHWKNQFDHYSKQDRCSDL
Chain of Mu-type opioid receptor (P35372 whole entry): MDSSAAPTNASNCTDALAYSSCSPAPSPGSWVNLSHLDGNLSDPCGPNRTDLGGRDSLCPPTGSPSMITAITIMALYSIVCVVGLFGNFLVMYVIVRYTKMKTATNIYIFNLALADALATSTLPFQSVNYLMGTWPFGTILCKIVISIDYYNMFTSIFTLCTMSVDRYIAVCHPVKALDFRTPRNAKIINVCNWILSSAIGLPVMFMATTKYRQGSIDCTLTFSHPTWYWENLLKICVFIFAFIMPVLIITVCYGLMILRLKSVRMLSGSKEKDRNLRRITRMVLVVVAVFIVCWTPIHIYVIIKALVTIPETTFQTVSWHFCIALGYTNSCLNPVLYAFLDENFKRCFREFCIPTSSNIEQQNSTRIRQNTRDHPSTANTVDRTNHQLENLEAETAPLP

Row | Compound | AC50 [1] | AC50 [2] | AC50 [3] | AC50 [4] | AC50 [5] | AC50 [6] | AC50 [7] | AC50 [8] | AC50 [9] | AC50 [10] | AC50 [11] | AC50 [12] | AC50 [13] | AC50 [14]
1 | CC(C)[C@H](N)C(=O)OCC(CO)OCn1cnc2c(=O)nc(N)[nH]c21 (stereo not given in full) [VALGANCICLOVIR] | > 30 µM | > 30 µM | > 30 µM | > 30 µM | > 30 µM | > 30 µM | – | – | – | – | – | – | – | –
2 | [H]/N=C(/N)N/C(=N/[H])NCCc1ccccc1 [PHENFORMIN] | > 30 µM | > 10 µM | > 10 µM | > 30 µM | > 30 µM | > 30 µM | > 30 µM | – | – | – | – | – | – | –
3 | CC(C(=O)O)c1ccc(-c2ccccc2)c(F)c1 (stereo not given) [FLURBIPROFEN] | > 10 µM | > 10 µM | > 10 µM | – | > 10 µM | > 10 µM | – | > 30 µM | > 30 µM | > 30 µM | > 30 µM | > 30 µM | > 30 µM | > 30 µM
4 | Cc1cc2cc3c(C)cc(=O)oc3c(C)c2o1 [TRIOXSALEN] | > 10 µM | > 10 µM | > 10 µM | – | > 10 µM | > 10 µM | – | – | – | – | – | – | – | –
5 | CCCC(CCC)C(N)=O [VALPROMIDE] | > 10 µM | > 10 µM | > 10 µM | > 30 µM | > 10 µM | > 10 µM | – | – | – | – | – | – | – | –
6 | CCOC(=O)C1=C(C)NC(C)=C(C(=O)OC)C1c1cccc([N+](=O)[O-])c1 (stereo not given) [NITRENDIPINE] | 0.0004 µM | > 10 µM | > 10 µM | > 30 µM | > 10 µM | > 10 µM | > 30 µM | – | – | – | – | – | – | –
7 | OC1(c2ccc(Cl)cc2)c2ccccc2C2=NCCN21 (stereo not given) [MAZINDOL] | > 10 µM | > 30 µM | > 30 µM | > 30 µM | > 10 µM | > 30 µM | > 30 µM | – | – | – | – | – | – | –
8 | CC(CCc1ccc(O)cc1)NCCc1ccc(O)c(O)c1 (stereo not given) [DOBUTAMINE] | > 30 µM | 6.86 µM | > 30 µM | > 30 µM | > 30 µM | > 30 µM | > 30 µM | – | – | – | – | – | – | –
9 | CCCCC1C(=O)N(c2ccccc2)N(c2ccccc2)C1=O [PHENYLBUTAZONE] | > 10 µM | > 10 µM | > 10 µM | > 30 µM | > 10 µM | > 10 µM | – | – | – | – | – | – | – | –
10 | Clc1ccc(C(Cn2ccnc2)OCc2ccsc2Cl)c(Cl)c1 (stereo not given) [TIOCONAZOLE] | 23 µM | 1.8 µM | > 30 µM | > 30 µM | > 30 µM | > 30 µM | – | – | – | – | – | – | – | –
11 | CCC1(c2ccccc2)CCC(=O)NC1=O (stereo not given) [GLUTETHIMIDE] | > 10 µM | > 10 µM | > 10 µM | – | > 10 µM | > 10 µM | – | – | – | – | – | – | – | –
12 | Nc1ncn([C@H]2C[C@H](O)[C@@H](CO)O2)c(=O)n1 [DECITABINE] | > 30 µM | > 30 µM | > 30 µM | > 30 µM | > 30 µM | > 30 µM | – | – | – | – | – | – | – | –
13 | CC12CC3CC(C)(C1)CC(N)(C3)C2 [MEMANTINE] | > 10 µM | 15.2 µM | > 10 µM | > 30 µM | > 10 µM | > 10 µM | > 30 µM | – | – | – | – | – | – | –
14 | Cc1noc(NS(=O)(=O)c2ccc(N)cc2)c1C [SULFISOXAZOLE] | > 10 µM | > 10 µM | > 10 µM | – | > 10 µM | > 10 µM | – | – | – | – | – | – | – | –
15 | CCC(=O)O[C@H]1CC[C@H]2[C@@H]3CCC4=CC(=O)CC[C@]4(C)[C@H]3CC[C@]12C [TESTOSTERONE PROPIONATE] | > 10 µM | 7.71 µM | > 10 µM | – | > 10 µM | > 10 µM | – | – | – | – | – | – | – | –
16 | CCCCC(=O)O[C@]1(C(=O)CO)[C@@H](C)C[C@H]2[C@@H]3CCC4=CC(=O)C=C[C@]4(C)[C@@]3(F)[C@@H](O)C[C@@]21C [BETAMETHASONE VALERATE] | > 10 µM | > 10 µM | > 10 µM | > 30 µM | > 10 µM | > 10 µM | – | – | – | – | – | – | – | –
17 | CC(C)NCC(O)c1ccc(O)c(O)c1 (stereo not given) [ISOPROTERENOL] | > 10 µM | > 10 µM | > 10 µM | > 30 µM | > 10 µM | > 10 µM | > 30 µM | – | – | – | – | – | – | –
18 | CNC1=Nc2ccc(Cl)cc2C(c2ccccc2)=[N+]([O-])C1 [CHLORDIAZEPOXIDE] | > 10 µM | – | > 10 µM | > 30 µM | > 10 µM | > 10 µM | – | – | – | – | – | – | – | –
19 | CCC[C@H](NC(=O)[C@@H]1[C@H]2CCC[C@H]2CN1C(=O)[C@@H](NC(=O)[C@@H](NC(=O)c1cnccn1)C1CCCCC1)C(C)(C)C)C(=O)C(=O)NC1CC1 | > 10 µM | > 10 µM | > 10 µM | > 30 µM | > 10 µM | – | – | – | – | – | – | – | – | –
20 | CC(C)(C)C(=O)OCC(=O)[C@H]1CC[C@H]2[C@@H]3CCC4=CC(=O)CC[C@]4(C)[C@H]3CC[C@]12C [DESOXYCORTICOSTERONE PIVALATE] | > 10 µM | > 10 µM | > 10 µM | – | > 10 µM | > 10 µM | – | – | – | – | – | – | – | –
21 | C=CCNc1nc(NCC=C)nc(N2CCN(C(c3ccc(F)cc3)c3ccc(F)cc3)CC2)n1 [ALMITRINE] | > 30 µM | 18 µM | > 30 µM | > 30 µM | > 30 µM | > 30 µM | > 30 µM | – | – | – | – | – | – | –
22 | CC(C)COCC(CN(Cc1ccccc1)c1ccccc1)N1CCCC1 (stereo not given) [BEPRIDIL] | 24 µM | – | – | > 30 µM | 10 µM | > 30 µM | > 30 µM | – | – | – | – | – | – | –
23 | CN1CCC(=C2c3ccccc3CCc3cccnc32)CC1 [AZATADINE] | > 10 µM | 9.38 µM | > 10 µM | > 30 µM | > 10 µM | > 10 µM | – | – | – | – | – | – | – | –
24 | CC1OC2(CS1)CN1CCC2CC1 (stereo not given) [CEVIMELINE] | > 10 µM | > 10 µM | > 10 µM | – | > 10 µM | > 10 µM | – | – | – | – | – | – | – | –
25 | CC(N)C(O)c1ccccc1 (stereo not given) [PHENYLPROPANOLAMINE] | > 10 µM | > 10 µM | > 10 µM | > 30 µM | > 10 µM | > 10 µM | > 30 µM | – | – | – | – | – | – | –
26 | C[C@H](Cc1ccc(O)c(O)c1)[C@@H](C)Cc1ccc(O)c(O)c1 [MASOPROCOL] | > 10 µM | 15 µM | > 10 µM | – | 23.9 µM | > 10 µM | – | – | – | – | – | – | – | –
